EPA's ToxValDB 9.5 (doi:10.2903/j.efsa.2009.204r)
Converted amounts (≈) assume the structure as drawn.

What was measured:
Anas platyrhynchos = settings: short-term; oral; feed; mortality
Apis mellifera = settings: acute; duration: 48 hours; oral; unspecified; mortality
Cyprinus carpio = settings: acute; duration: 96 hours; mortality
Daphnia magna = settings: chronic/long-term; duration: 21 days; reproduction
Folsomia candida = settings: chronic/long-term; duration: 28 days
Mus musculus = settings: oral
Oncorhynchus mykiss = settings: chronic/long-term; duration: 28 days; growth
Typhlodromus pyri = experiment: LR50; higher = less toxic; settings: acute; duration: 7 days; mortality

Compound: CC(C)=NOCCOC(=O)[C@@H](C)Oc1ccc(Oc2cnc3cc(Cl)ccc3n2)cc1 [Propaquizafop]
- LC50 (Anas platyrhynchos): > 827 mg/kg-day
- LD50 (Apis mellifera): > 20 µg/piece
- LD50 (Colinus virginianus; acute, oral, mortality): > 2000 mg/kg
- NOEC (Colinus virginianus; reproduction developmental): ≥ 20.2 mg/kg-day
- LC50 (Cyprinus carpio): 0.19 mg/L (≈ 0.428 µM)
- NOEC (Daphnia magna): 0.44 mg/L
- NOEC (Folsomia candida): 5.4 mg/kg
- LD50 (Mus musculus; acute, mortality): 3010 mg/kg
- NOAEL (Mus musculus; chronic, duration: 18 months, clinical chemistry): 1.5 mg/kg-day
- NOEC (Oncorhynchus mykiss): 0.019 mg/L
- NOAEL (Rattus norvegicus; reproduction developmental, reproduction): 15 mg/kg-day
- NOAEL (Rattus norvegicus; subchronic, duration: 90 days, oral): 6.25 mg/kg-day
- LC50 (Tagia sp.; acute, mortality): > 1000 mg/kg
- NOEC (Tagia sp.; chronic/long-term, duration: 56 days): 3.9 mg/kg
- LR50 (Typhlodromus pyri): > 1.4 g/ha
